Test [1] addresses T1, Tyrosine-protein kinase Mer (Homo sapiens) (UniProt Q12866).
T1 sequence (whole entry): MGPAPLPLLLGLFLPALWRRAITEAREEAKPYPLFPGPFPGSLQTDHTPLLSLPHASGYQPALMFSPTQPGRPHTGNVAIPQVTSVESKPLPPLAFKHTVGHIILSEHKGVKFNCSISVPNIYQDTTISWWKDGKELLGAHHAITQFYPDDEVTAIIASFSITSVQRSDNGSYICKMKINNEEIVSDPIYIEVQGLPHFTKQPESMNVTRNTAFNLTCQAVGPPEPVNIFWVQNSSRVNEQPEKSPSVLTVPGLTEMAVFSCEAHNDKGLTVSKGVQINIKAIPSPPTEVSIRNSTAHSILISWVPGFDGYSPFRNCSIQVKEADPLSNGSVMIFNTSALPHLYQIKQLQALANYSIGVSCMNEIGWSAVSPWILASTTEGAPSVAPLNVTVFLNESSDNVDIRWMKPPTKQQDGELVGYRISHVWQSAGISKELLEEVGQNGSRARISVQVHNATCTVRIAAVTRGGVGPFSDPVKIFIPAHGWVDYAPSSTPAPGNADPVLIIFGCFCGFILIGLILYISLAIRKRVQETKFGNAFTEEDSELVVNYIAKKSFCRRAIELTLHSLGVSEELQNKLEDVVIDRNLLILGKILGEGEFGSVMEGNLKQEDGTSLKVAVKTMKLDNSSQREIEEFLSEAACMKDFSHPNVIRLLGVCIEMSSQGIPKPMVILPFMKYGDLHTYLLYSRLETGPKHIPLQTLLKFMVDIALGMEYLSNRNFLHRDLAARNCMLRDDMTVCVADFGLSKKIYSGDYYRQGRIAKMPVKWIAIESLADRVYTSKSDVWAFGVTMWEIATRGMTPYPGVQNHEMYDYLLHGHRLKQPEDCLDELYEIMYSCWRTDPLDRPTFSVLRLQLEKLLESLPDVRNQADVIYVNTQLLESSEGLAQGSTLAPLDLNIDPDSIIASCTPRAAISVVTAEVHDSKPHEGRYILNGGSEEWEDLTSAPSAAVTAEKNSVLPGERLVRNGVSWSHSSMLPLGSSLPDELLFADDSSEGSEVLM
The settings on record: at 10 µM.

The target of test [2] is T2, Serine/threonine-protein kinase TBK1 (Homo sapiens) (UniProt Q9UHD2).
T2 sequence (whole entry): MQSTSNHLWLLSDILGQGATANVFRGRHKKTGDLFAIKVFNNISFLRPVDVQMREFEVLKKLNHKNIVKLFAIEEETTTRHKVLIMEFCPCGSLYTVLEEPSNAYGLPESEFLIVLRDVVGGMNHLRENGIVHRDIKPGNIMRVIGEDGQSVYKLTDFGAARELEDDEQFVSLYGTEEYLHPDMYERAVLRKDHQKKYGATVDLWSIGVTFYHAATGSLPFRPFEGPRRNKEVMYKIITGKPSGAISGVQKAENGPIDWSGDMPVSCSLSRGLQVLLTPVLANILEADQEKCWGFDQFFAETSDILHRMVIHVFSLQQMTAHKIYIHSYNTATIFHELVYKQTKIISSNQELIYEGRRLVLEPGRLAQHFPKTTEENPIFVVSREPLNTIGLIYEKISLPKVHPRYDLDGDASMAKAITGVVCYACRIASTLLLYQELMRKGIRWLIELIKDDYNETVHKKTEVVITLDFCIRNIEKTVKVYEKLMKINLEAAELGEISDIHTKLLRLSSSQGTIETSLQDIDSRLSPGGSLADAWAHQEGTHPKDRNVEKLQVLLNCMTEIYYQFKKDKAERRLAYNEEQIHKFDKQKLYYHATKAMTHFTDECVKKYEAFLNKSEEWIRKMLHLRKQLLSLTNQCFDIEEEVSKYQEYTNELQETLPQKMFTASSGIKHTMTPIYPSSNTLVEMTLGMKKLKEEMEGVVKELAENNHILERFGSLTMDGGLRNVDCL
The settings on record: at 1 µM.

Data on 49 molecules can be found in ChEMBL document CHEMBL2007661, “Compounds: GSK PKIS; Assays: UNC Frye lab” (2012).

Several values for one entry are separate records, joined by “and”; a condition that tells them apart may be missing. Equal values may be shown once.

By inhibition is commonly meant the drop in the measured response relative to a control, in per cent. On to `CN(c1ccc(NC(=O)Nc2c(Cl)cccc2Cl)cc1)c1ccnc(Nc2cccc(CS(C)(=O)=O)c2)n1`, for which the inhibition in test [1] was -4%; in test [2] it was 19% and 17%.

Regarding `CN(C)CCNC(=O)Nc1ccc(N(C)c2ccnc(Nc3ccc(CS(C)(=O)=O)cc3)n2)cc1`, the inhibition in test [1] was 1%; in test [2], -2% and -4%.

As for `FC(F)(F)CNc1nccc(-c2cnn3ncccc23)n1`, the inhibition in test [1] was 1%; in test [2], -2% and -4%.

Take `CCN1CCC(CC(=O)Nc2n[nH]c3nnc(-c4cccc(F)c4F)cc23)CC1`: the inhibition in test [1] was 9%; in test [2], 0%.

Take `Cc1cc(Cl)cc2c1NC(=O)C2=NNc1ccc(S(N)(=O)=O)cc1`: the inhibition was 63% in test [1]; 29% and 26% in test [2].

Turning to `Cc1ccc(C(=O)NC2CCCCC2)cc1-c1ccc(C(=O)NCC2CC2)cc1`, the inhibition in test [1] is -8%; in test [2], -2% and -3%.

In the case of `O=C1Nc2ccc(-c3cccnc3)cc2C1=Cc1cc(Br)c(O)c(Br)c1`, the inhibition in test [1] was 1%; in test [2] it was 40% and 43%.

For `COc1cc2ncn(-c3cc(OCc4ccccc4C(F)(F)F)c(C(C)=O)s3)c2cc1OC`, the inhibition in test [1] is -1%; in test [2] it was -3% and -2%.

For the molecule `O=C1Nc2ccccc2/C1=C/Nc1ccc2[nH]c(=O)[nH]c2c1`, the inhibition in test [1] is -2%; in test [2], 30% and 27%.

`COC(=O)Nc1nc2cc(Oc3ccc(NC(=O)Nc4ccccc4)cc3)ccc2[nH]1`: the inhibition in test [1] stood at 100%; in test [2] it was 8%.

For `Nc1ncnc2occ(-c3ccc(NC(=O)Nc4cc(C(F)(F)F)cc(C(F)(F)F)c4)cc3)c12`, the inhibition is 2% in test [1]; -3% and -6% in test [2].

Consider `Cc1c2ccc(N(C)c3ccnc(Nc4cccc(S(N)(=O)=O)c4)n3)cc2nn1C`, for which the inhibition in test [1] is -9%; in test [2], 1% and 2%.

In the case of `O=C(Nc1n[nH]c2cc(-c3ccc(F)cc3)ccc12)C1CC1`, the inhibition in test [1] was 86%; in test [2], 2% and 4%.

Take `COc1cc2ncn(-c3cc(OCc4ccccc4S(C)(=O)=O)c(C#N)s3)c2cc1OC`: the inhibition is 2% in test [1]; 103% and 101% in test [2].

Take `c1ccc(Oc2ccc(Nc3ncc(-c4ccccc4)o3)cc2)cc1`: the inhibition in test [1] is 27%; in test [2], -5% and -4%.

Consider `CNC(=O)c1cncc(/C=C/c2ccccc2Cl)c1`, for which the inhibition in test [1] was 5%; in test [2] it was 2% and 1%.

Consider `O=C(Nc1n[nH]c2cc(-c3ccccc3)ccc12)C1CC1`, for which the inhibition in test [1] was -4%; in test [2], 2% and 0%.

Turning to `CN(c1ccc(NC(=O)Nc2ccc(OC(F)(F)F)cc2)cc1)c1ccnc(Nc2cccc(S(N)(=O)=O)c2)n1`, the values for the inhibition in test [1] and in test [2] were -1% and 18%, respectively.

As to `NCc1ccc(-c2nc(-c3ccc(Cl)c(O)c3)c(-c3ccncc3)[nH]2)cc1`, the inhibition in test [1] was 0%; in test [2], 14% and 16%.

Consider `CC(=O)Nc1cccc(C#Cc2cncnc2Nc2ccc(OCc3cccc(F)c3)c(Cl)c2)n1`, for which the inhibition in test [1] was 1%; in test [2] it was 3% and 0%.

On to `Fc1ccc(-c2ncn(CCCN3CCOCC3)c2-c2ccncc2)cc1`, for which the inhibition in test [1] is 21%; in test [2], -1%.

`Cc1cccc(Nc2ncc(-c3ccccc3)o2)c1`: the inhibition in test [1] is 38%; in test [2], 1% and 4%.

Take `COc1ccc(Nc2ncc(-c3ccccc3)o2)cc1OC`: the inhibition in test [1] is 0%; in test [2], 8% and 20%.

As for `COc1ccc2cc(-c3c(-c4ccncc4)nc(-c4ccc([S+](C)[O-])cc4)n3C)ccc2c1` (stereo not drawn), the inhibition was 77% in test [1]; -3% and 0% in test [2].

With `COc1cc2c(cc1Nc1nc(Nc3ccsc3C(N)=O)c3cc[nH]c3n1)N(C(=O)CN(C)C)CCC2`, the inhibition is 67% in test [1]; 23% and 19% in test [2].

Consider `CCC(=O)Nc1ccc(C)c(-c2ccc(C(=O)NCC3CC3)cc2)c1`, for which the inhibition in test [1] was -1%; in test [2], 1% and -2%.

As to `CCc1cccc(NC(=O)Nc2ccc(Oc3ccc4nc(NC(=O)OC)[nH]c4c3)cc2)c1`, the inhibition in test [1] was 8%; in test [2], -3% and -1%.

With `Cc1ccc(O)cc1Nc1ccnc2cc(-c3ccccn3)ccc12`, the inhibition in test [1] was -2%; in test [2], 2% and 1%.

In the case of `CCCN1CCC=C(c2ccc(Nc3nc(Nc4ccccc4C(N)=O)c4cc[nH]c4n3)c(C)c2)C1`, the inhibition was 10% in test [1]; 28% and 24% in test [2].

`CCn1c(-c2nonc2N)nc2ccccc21`: the inhibition in test [1] was 59%; in test [2], -2% and -3%.

With `CN1CCC(n2cnc(-c3ccc(F)cc3)c2-c2ccnc(N)n2)CC1`, the inhibition was -7% in test [1]; 0% and 2% in test [2].

For the molecule `COc1cc2ncnc(Nc3ccc4c(cnn4Cc4ccccc4)c3)c2cc1OC`, the inhibition is 5% in test [1]; 5% and 2% in test [2].

In the case of `CN1CCN(Cc2ccc(-c3cc4ncnc(Nc5ccc(OCc6cccc(F)c6)c(Cl)c5)c4s3)o2)CC1`, the inhibition is -4% in test [1]; 7% and 3% in test [2].

With `Fc1ccc(-c2ncn(C3CCNCC3)c2-c2ccnc(Oc3ccccc3)n2)cc1`, the inhibition in test [1] was 31%; in test [2], 0% and 3%.

On to `COc1cc(N2CCN(C(C)C)CC2)ccc1Nc1nc(Nc2ccc(F)cc2C(=O)NC[C@@H](O)CO)c2cc[nH]c2n1`, for which the inhibition in test [1] was 0%; in test [2], -1% and -3%.

As for `CN(C)CCCn1c(-c2nonc2N)nc2cnccc21`, the inhibition was 23% in test [1]; 1% and 0% in test [2].

Consider `COc1ccc(-c2nn3ncccc3c2-c2ccnc(Nc3ccc4c(c3)OCCO4)n2)cc1`, for which the inhibition is 0% in test [1]; 1% and 0% in test [2].

As for `Cn1cc(C=C2C(=O)Nc3cccnc32)c2ccccc21`, the inhibition in test [1] is -6%; in test [2] it was 17% and 18%.

`CCn1c(-c2nonc2N)nc2c(C#CC(C)(C)O)ncc(OCC3CCNCC3)c21`: the inhibition is 3% in test [1]; 55% and 59% in test [2].

As for `CS(=O)(=O)CCN(CC#N)Cc1ccc(-c2ccc3ncnc(Nc4ccc(OCc5cccc(F)c5)c(Cl)c4)c3c2)o1`, the inhibition in test [1] is 66%; in test [2] it was 11% and 12%.

Take `[O-][S+]1CCN(Cc2ccc(-c3ccc4ncnc(Nc5ccc(OCc6cccc(F)c6)c(Cl)c5)c4c3)o2)CC1`: the inhibition was 67% in test [1]; 7% and 0% in test [2].

In the case of `COc1ccc2cc(-c3c(-c4ccncc4)nc(-c4ccc([S+](C)[O-])cc4C)n3C)ccc2c1` (stereo not drawn), the inhibition in test [1] is -5%; in test [2], -2% and -3%.

As for `Fc1ccc(Nc2nccc(-c3c(-c4ccc(C(F)(F)F)cc4)nn4ncccc34)n2)cc1F`, the inhibition in test [1] and in test [2] was -5% in each case.

On to `Cc1ccc(O)cc1Nc1ccnc2ccc(S(C)(=O)=O)cc12`, for which the inhibition in test [1] was 6%; in test [2], 1% and -2%.

`COc1ccc(COc2ccc(Cc3cnc(N)nc3N)cc2OC)cc1`: the inhibition was 5% in test [1]; -3% and -2% in test [2].

Consider `Nc1nc(-c2ccc(F)cc2)c(-c2ccc3ncccc3n2)s1`, for which the inhibition in test [1] was -2%; in test [2], 4% and 1%.

For `CS(=O)(=O)Nc1ccc(N/C=C2\C(=O)Nc3ccccc32)cc1`, the inhibition in test [1] was 2%; in test [2] it was 29% and 20%.

On to `c1ccc(Cc2nc3ccc(Nc4ncnc5ccccc45)cc3[nH]2)cc1`, for which the inhibition in test [1] is 4%; in test [2] it was -5% and -7%.

Regarding `Oc1cccc(-c2nc(-c3ccccc3)[nH]c2-c2ccncc2)c1`, the inhibition was 3% in test [1] and -1% in test [2].
